Assay results: patent publication US20050220726A1, “Use of sugar esters in cosmetic and/or pharmaceutical preparations” (priority 2003, published 2005)

Assays:
[1] = test system: melanocytes (B16 cell line); test: Inhibition of melanin synthesis in B16 melanocytes; type: cell-based; details: 3 days, blank value = 100
Description: Melanin is the pigment responsible for the color of the skin and hair. It is formed in special organelles, the melanosomes, which occur in the melanocytes of the basal layer of the human epidermis. The biosynthesis of melanin begins with the amino acid tyrosine which is oxidized to DOPA (dihydroxyphenylalanine) in the presence of tyrosinase. The DOPA then polymerizes to melanin. […] After incubation for 3 days at 37° C./5% CO2, the nutrient medium was replaced by a solution containing the test substances in various concentrations. After incubation for another 3 days, the cell protein content (Bradford's method) and the content of synthesized melanin were determined through the optical density of the homogenizate at 475 nm. The results are expressed in % against a blank value and are set out in Table 7.

[2] = test system: human leukaemic granulocytes; test: Anti-inflammatory activity: respiratory burst of granulocytes (zymosan, luminol); type: cell-based; details: + stimulation (zymosan), blank + stimulation = 100
Text: In the course of cutaneous inflammation, leucocytes, such as the polymorphonuclear neutrophilic granulocytes (PMNs) for example, are stimulated by peptides, such as cytokines for example, to emit messenger substances, such as leucotriene for example, which are released from activated or necrotic cells in the dermis. These activated PMNs release not only pro-inflammatory cytokinins, leucotrienes and proteases, but also ROS, such as superoxides and hypochlorite anions for example, of which the function is to destroy penetrated pathogenic germs or fungi. This activity of the PMNs during the inflammation is known as so-called respiratory burst. To investigate to what extent the test extracts can prevent or reduce the respiratory burst, a cell line of human leukaemic granulocytes of these PMNs was incubated together with the test substances at 37° C. and 5% by vol. CO2. After the respiratory burst had been initiated by addition of a yeast extract (zymosan) to the cell solution, the release of superoxide anions was determined through their reaction with luminol.

human fibroblasts = test: Anti-stress effect on UV-A-damaged fibroblasts; type: cell-based; details: + UV-A 20 J/cm^2; for Cell proteins: blank sample = 100; for GSH/proteins: blank sample = 100, blank + UV-A = 65
Description: UV-A radiation in the 320 to 400 nm range induces oxidative stress which is mainly produced by the activation of photosensitive biological components which in turn catalyze the formation of ROS-like superoxide anions, hydrogen peroxide and singlet oxygen atoms. The anti-UV-A effect was tested on fibroblasts because UV-A radiation penetrates through the dermis where it causes oxidative damage by lipoperoxidation of the cell membrane and a reduction in the content of reduced glutathione (GHS). To this end, human fibroblasts were cultivated as described in a), exposed to UV-A rays (20 J/cm^2) and the cell counts and the GSH content subsequently determined. The results are set out in Table 3, where they are expressed in %-rel. against a blank sample, and represent the results of 3 series of measurements with triple determination.

human keratinocytes [3] = test: Growth inhibition on human keratinocytes with EGF; type: cell-based; details: with EGF 10 ng/ml, 3 days, control = 100, control with EGF = 167
Description: Increased proliferation and differentiation of keratinocytes of the hair matrix leads to improved longer hair growth. The following test was carried out to determine the potential of the sugar esters for inhibiting hair growth which is visibly reflected in a reduction in the proliferation of human keratinocyte culture in vitro.
To this end, human keratinocytes were cultivated in a standard cell culture medium containing foetal calf serum (FCS). After incubation for 1 day at 37° C./5% CO2, the growth medium was replaced by standard medium containing 10 ng/ml epidermal growth factor (EGF) and various concentrations of sugar esters dissolved in ethanol (1% by volume).
After incubation for three days, the number of living cells was determined by determining the cell protein content by the Bradford method [Bradford, M. M., A rapid and sensitive method for the quantitation of microgram quantities of protein utilizing the principle of protein-dye binding. Anal. Biochem. (1977), Vol. 72, pp. 248-254].
The results of Table 8 represent the values of triple determinations on two batches expressed in % against a control of cell culture medium without sugar ester.

[4] = test system: bacterial collagenase (clostridium histolyticum); test: Collagenase inhibition on FITC-marked gelatin; type: biochemical; details: 60 mins. at 20° C.
Description: In the event of inflammation, skin proteases, for example collagenase, are released from the polymorphonuclear neutrophilic granulocytes or macrophages. A similar process takes place in the skin of elderly people on exposure to UV rays. As already mentioned, the proteases—also known as matrix metalloproteases (MMPs) through their content of central zinc ions—catalyze the fragmentation of connective tissue proteins. The test substances were tested for collagenase inhibition using bacterial collagenase (clostridium histolyticum) on gelatin marked with fluorochromium (FITC, Calbiochem) as a natural nutrient medium. The incubation time was 60 mins. at 20° C.; the hydrolysis of the substrate was monitored by fluorescence at 393 nm (excitation at 328 nm). The results are set out in Table 6 as the collagenase inhibition in %.

human keratinocytes [5] = test: Protecting cells against UVB radiation (cell DNA, LDH and PGE2 release); type: cell-based; details: + UV-B 50 mJ/cm^2; for Cell DNA: blank = 100, control + UV-B = 33; for LDH released / PGE2 released: control + UV-B = 100
Description: UVB was selected as the stress factor because the rays produce cutaneous inflammation (erythemas, oedemas) by activating enzymes that release arachidonic acid, such as phospholipase A2 (PLA2) for example. […] The influence of UVB rays on keratinocytes was determined in vitro through the release of cytoplasmatic enzymes, such as LDH (lactate dehydrogenase) for example, which runs parallel to the cell damage and the formation of PGE2. […] The quantity of keratinocytes was determined after trypsination via a cell counter while the LDH concentration was enzymatically determined. The results are set out in Table 4, where they are expressed as the activity in %-rel. against a standard, and represent the mean value of two test series involving double determination.

Propionibacterium acnes = test: Agar diffusion method, inhibition zones; type: cell-based; details: filter paper with 20 μl test substance; 18 to 24 h at 37° C., anaerobic
Description: (§1) The antibacterial activity of the test substances was tested by the diffusion method on agar plates or the agar dilution method. In this method, a round filter paper of defined diameter is first impregnated with the test solution and then applied to the surface of an agar plate inoculated beforehand with the test microorganisms. The size of the inhibition zones is then determined after defined times. In particular, it is possible by this method to determine the MIC (Minimum Inhibitory Concentration) as the lowest concentration of test substance with which complete inhibition of the microorganisms can be obtained.
(§2) Agar diffusion method. The inoculum was prepared using a fresh culture in a stationary growth phase (after ca. 18-24 h) in a BHI solution (brain-heart Infusion). The bacterial suspension was adjusted to 0.5 MacFarland units, corresponding to 1.5 10^8 colony-forming units (cfu)/ml; the suspension was then diluted with a sodium chloride solution (1:100) to adjust a value of 1.5 10^6 cfu/ml. Mueller-Hinton agar (Staphylococcus epidermidis, Staphylococcus aureus) and Wilkins-Chalgrens agar containing 5% by weight sheep's blood (Propionibacterium acnes) were then sterilized for 15 mins. at 121° C. and then placed in Petri dishes. 2 to 4 ml of the bacterial suspension were then added to the Petri dishes, followed by drying at room temperature. The filter papers were impregnated with 20 μl of the test substances and applied to the surface of the agar plates. The inoculated Petri dishes were incubated for 18 to 24 h at 37° C. (the Petri dishes containing Propionibacterium acnes under anaerobic conditions) and the antimicrobial activity was then determined by determination of the growth inhibition zones. The results are set out in Table 10 and represent the diameters of the inhibition zones in mm.

Staphylococcus aureus = test: Agar diffusion method, inhibition zones; type: cell-based; details: filter paper with 20 μl test substance; 18 to 24 h at 37° C.
Description: as §1, §2

[6] = test system: Staphylococcus epidermidis; test: Agar diffusion method, inhibition zones; type: cell-based; details: filter paper with 20 μl test substance; 18 to 24 h at 37° C.
Description: as §1, §2

Fructose dicaprate
Cell melanin ([1]; conc. 0.003 % w/v): 88 %-rel. | Cell proteins ([1]; conc. 0.003 % w/v): 105 %-rel. | Cell melanin ([1]; conc. 0.01 % w/v): 41 %-rel. | Cell proteins ([1]; conc. 0.01 % w/v): 91 %-rel.

Fructose monostearate
Cell melanin ([1]; conc. 0.001 % w/v): 85 %-rel. | Cell proteins ([1]; conc. 0.001 % w/v): 104 %-rel. | Cell melanin ([1]; conc. 0.003 % w/v): 34 %-rel. | Cell proteins ([1]; conc. 0.003 % w/v): 91 %-rel.

Fructose palmitate
Cell counts ([2]; conc. 0.001 % w/v): 97 %-rel. | ROS released ([2]; conc. 0.001 % w/v): 81 %-rel. | Cell counts ([2]; conc. 0.01 % w/v): 98 %-rel. | ROS released ([2]; conc. 0.01 % w/v): 42 %-rel. | Cell proteins (human fibroblasts; conc. 0.003 % w/v): 91 %-rel. | GSH/proteins (human fibroblasts; conc. 0.003 % w/v): 81 %-rel. | Cell protein content in % (human keratinocytes [3]; conc. 0.001 % w/v): 166% | Cell protein content in % (human keratinocytes [3]; conc. 0.003 % w/v): 143% | Cell protein content in % (human keratinocytes [3]; conc. 0.01 % w/v): 105% | Collagenase inhibition ([4]; Conc. [w/v] 0.03): 4 %-rel. | Collagenase inhibition ([4]; Conc. [w/v] 0.1): 41 %-rel. | Collagenase inhibition ([4]; Conc. [w/v] 0.3): 78 %-rel.

Fructose stearate
Cell counts ([2]; conc. 0.001 % w/v): 100 %-rel. | ROS released ([2]; conc. 0.001 % w/v): 88 %-rel. | Cell counts ([2]; conc. 0.01 % w/v): 155 %-rel. | ROS released ([2]; conc. 0.01 % w/v): 26 %-rel. | Cell proteins (human fibroblasts; conc. 0.003 % w/v): 83 %-rel. | GSH/proteins (human fibroblasts; conc. 0.003 % w/v): 79 %-rel. | Cell melanin ([1]; conc. 0.006 % w/v): 49 %-rel. | Cell proteins ([1]; conc. 0.006 % w/v): 105 %-rel. | Cell melanin ([1]; conc. 0.01 % w/v): 21 %-rel. | Cell proteins ([1]; conc. 0.01 % w/v): 76 %-rel. | Collagenase inhibition ([4]; Conc. [w/v] 0.3): 45 %-rel.

Glucose caprate
Cell proteins (human fibroblasts; conc. 0.003 % w/v): 109 %-rel. | GSH/proteins (human fibroblasts; conc. 0.003 % w/v): 144 %-rel. | Cell DNA (human keratinocytes [5]; conc. 0.003 % w/v): 28 %-rel. | LDH released (human keratinocytes [5]; conc. 0.003 % w/v): 72 %-rel. | PGE2 released (human keratinocytes [5]; conc. 0.003 % w/v): 50 %-rel. | Cell DNA (human keratinocytes [5]; conc. 0.01 % w/v): 36 %-rel. | LDH released (human keratinocytes [5]; conc. 0.01 % w/v): 48 %-rel. | PGE2 released (human keratinocytes [5]; conc. 0.01 % w/v): 28 %-rel.

Glucose caprylate
Inhibition zones, Propionibacterium acnes (Propionibacterium acnes): 12 mm | Inhibition zones, Staphylococcus aureus (Staphylococcus aureus): 11 mm | Inhibition zones, Staphylococcus epidermidis [6]: 0 mm

Glucose laurate
Cell proteins (human fibroblasts; conc. 0.0001 % w/v): 95 %-rel. | GSH/proteins (human fibroblasts; conc. 0.0001 % w/v): 91 %-rel. | Inhibition zones, Propionibacterium acnes (Propionibacterium acnes): 10 mm | Inhibition zones, Staphylococcus aureus (Staphylococcus aureus): 14 mm | Inhibition zones, Staphylococcus epidermidis [6]: 16 mm | Collagenase inhibition ([4]; Conc. [w/v] 0.1): 28 %-rel. | Cell DNA (human keratinocytes [5]; conc. 0.001 % w/v): 17 %-rel. | LDH released (human keratinocytes [5]; conc. 0.001 % w/v): 105 %-rel. | PGE2 released (human keratinocytes [5]; conc. 0.001 % w/v): 107 %-rel. | Cell DNA (human keratinocytes [5]; conc. 0.003 % w/v): 54 %-rel. | LDH released (human keratinocytes [5]; conc. 0.003 % w/v): 49 %-rel. | PGE2 released (human keratinocytes [5]; conc. 0.003 % w/v): 23 %-rel.

Glucose palmitate
Cell counts ([2]; conc. 0.001 % w/v): 102 %-rel. | ROS released ([2]; conc. 0.001 % w/v): 99 %-rel. | Cell counts ([2]; conc. 0.01 % w/v): 91 %-rel. | ROS released ([2]; conc. 0.01 % w/v): 58 %-rel. | Cell proteins (human fibroblasts; conc. 0.003 % w/v): 119 %-rel. | GSH/proteins (human fibroblasts; conc. 0.003 % w/v): 114 %-rel. | Cell DNA (human keratinocytes [5]; conc. 0.001 % w/v): 32 %-rel. | LDH released (human keratinocytes [5]; conc. 0.001 % w/v): 68 %-rel. | PGE2 released (human keratinocytes [5]; conc. 0.001 % w/v): 63 %-rel. | Cell DNA (human keratinocytes [5]; conc. 0.003 % w/v): 32 %-rel. | LDH released (human keratinocytes [5]; conc. 0.003 % w/v): 68 %-rel. | PGE2 released (human keratinocytes [5]; conc. 0.003 % w/v): 65 %-rel.

Sucrose stearate
Cell melanin ([1]; conc. 0.001 % w/v): 75 %-rel. | Cell proteins ([1]; conc. 0.001 % w/v): 89 %-rel. | Cell melanin ([1]; conc. 0.003 % w/v): 18 %-rel. | Cell proteins ([1]; conc. 0.003 % w/v): 70 %-rel.

Trehalose caprate
Cell proteins (human fibroblasts; conc. 0.00003 % w/v): 120 %-rel. | GSH/proteins (human fibroblasts; conc. 0.00003 % w/v): 87 %-rel. | Cell melanin ([1]; conc. 0.001 % w/v): 53 %-rel. | Cell proteins ([1]; conc. 0.001 % w/v): 100 %-rel. | Cell melanin ([1]; conc. 0.003 % w/v): 23 %-rel. | Cell proteins ([1]; conc. 0.003 % w/v): 75 %-rel. | Inhibition zones, Propionibacterium acnes (Propionibacterium acnes): 10 mm | Inhibition zones, Staphylococcus aureus (Staphylococcus aureus): 10 mm | Inhibition zones, Staphylococcus epidermidis [6]: 0 mm | Collagenase inhibition ([4]; Conc. [w/v] 0.3): 52 %-rel.

Trehalose laurate
Cell proteins (human fibroblasts; conc. 0.003 % w/v): 119 %-rel. | GSH/proteins (human fibroblasts; conc. 0.003 % w/v): 90 %-rel. | Collagenase inhibition ([4]; Conc. [w/v] 0.1): 21 %-rel.
